# Earlier results, collected in patent US20230414606A1 (Lake O'Hara LLC, priority 2022, published 2023).
# Experiments:
# CYP3A4 = CYP3A4 (Homo sapiens, UniProt P08684); details: based on the literature, model input
# [1] = previous studies, no patients with BMI>35 kg/m2
# [2] = based on the literature, model input
# CYP3A4, sequence (P08684 whole entry): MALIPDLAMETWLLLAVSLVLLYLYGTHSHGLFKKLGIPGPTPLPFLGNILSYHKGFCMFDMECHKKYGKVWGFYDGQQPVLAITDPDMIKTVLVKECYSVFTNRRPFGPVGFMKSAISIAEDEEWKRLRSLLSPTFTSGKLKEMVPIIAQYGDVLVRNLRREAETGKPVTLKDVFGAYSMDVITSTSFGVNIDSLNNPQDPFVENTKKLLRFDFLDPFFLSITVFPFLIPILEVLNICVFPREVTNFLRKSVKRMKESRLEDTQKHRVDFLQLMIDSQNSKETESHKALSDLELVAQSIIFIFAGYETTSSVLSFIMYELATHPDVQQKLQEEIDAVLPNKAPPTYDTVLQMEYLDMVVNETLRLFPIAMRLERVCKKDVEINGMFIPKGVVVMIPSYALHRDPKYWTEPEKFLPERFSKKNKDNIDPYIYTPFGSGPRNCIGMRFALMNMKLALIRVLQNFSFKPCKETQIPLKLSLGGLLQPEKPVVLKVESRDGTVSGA
compound,measurement,setting,value
"O=c1ccc2ccc(OCCCCN3CCN(c4cccc5sccc45)CC3)cc2[nH]1 [brexpiprazole, 7-14-14-(1-Benzothiophen-4-yl)piperazin-1-yllbutoxylquinolin-2(1H)-one]",brexpiprazole clearance due to other routes,[2],10%
same,renal clearance,"model assumption, clearance entirely in the liver",~1%
same,brexpiprazole clearance due to CYP3A4,CYP3A4,46.7%
same,decrease of baseline clearance by CYP2D6 PM status,CYP2D6; CYP2D6 PM,~30%
same,brexpiprazole clearance due to CYP2D6,CYP2D6; [2],43.3%
same,effect of weight on the pharmacokinetics of brexpiprazole,[1],less than 20%
